The text below walks through data of the supplement of paper PMC10307832.

Compound in test [1]: COc1cc(Nc2ncc(F)c(Nc3ccc4c(n3)NC(=O)C(C)(C)O4)n2)cc(OC)c1OC [R406]
The test can be described thus: relative viability (nuclei count vs DMSO), 5 days (fraction); higher = more cells survive. An outline of the steps: (§1)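 MetaXpress counted nuclei in 4× images of lung cancer cell lines that had been fixed, permeabilised and Hoechst-stained in one step. Before that, cells in 1536-well plates were kept overnight at 37 °C, pinned with five √10-spaced library-drug doses on vehicle-anchored plates, and cultured 5 days without medium change. Viability takes treated-well nuclei over vehicle-well nuclei and uses the median across plates. Plates were accepted only at control CV below 25% and at least one doubling.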

Compound in test [2]: O=C(/C=C/c1cccnc1)NCCCCC1CCN(C(=O)c2ccccc2)CC1 [Daporinad]
The description is as above. In outline:
as §1

As to PC-14, the relative viability in test [1] (0.08 µM) worked out at 0.968; in test [1] (0.253 µM), 1.18; in test [1] (0.8 µM), 1.09; in test [1] (2.53 µM), 0.759; in test [1] (8 µM), 0.601; in test [2] (0.0005 µM), 0.951. Further, the figures for the relative viability in test [2] (0.001581 µM), in test [2] (0.005 µM) and in test [2] (0.01581 µM) were 1.08, 1.08 and 0.871, respectively.
In the case of RERF-LC-KJ, the relative viability came out at 0.98 in test [1] (0.08 µM); 1.06 in test [1] (0.253 µM); 1.06 in test [1] (0.8 µM); 0.781 in test [1] (2.53 µM); 0.827 in test [1] (8 µM); 0.923 in test [2] (0.0005 µM). The relative viability in test [2] (0.001581 µM) came to 1.04; in test [2] (0.005 µM) it was 1.07; in test [2] (0.01581 µM), 1.02.
Take SK-LU-1: the relative viability in test [1] (0.08 µM) was determined as 0.955; in test [1] (0.253 µM), 1.16; in test [1] (0.8 µM), 1.15; in test [1] (2.53 µM) it was 0.513; in test [1] (8 µM), 0.386; in test [2] (0.0005 µM), 1.06. Besides, the results for the relative viability in test [2] (0.001581 µM), in test [2] (0.005 µM) and in test [2] (0.01581 µM) were 1.11, 1.19 and 1.12, respectively.
For the cell line SK-MES-1, the relative viability in test [1] (0.08 µM) worked out at 0.989; in test [1] (0.253 µM) it was 1.05; in test [1] (0.8 µM), 1.06; in test [1] (2.53 µM), 0.648; in test [1] (8 µM) it was 0.322; in test [2] (0.0005 µM) it was 0.978. Further, the results for the relative viability in test [2] (0.001581 µM), in test [2] (0.005 µM) and in test [2] (0.01581 µM) were 1.05, 1.12 and 1.03, respectively.
SW 900: the relative viability was found to be 0.798 in test [1] (0.08 µM); 1.03 in test [1] (0.253 µM); 1.26 in test [1] (0.8 µM); 0.166 in test [1] (2.53 µM); 0.293 in test [1] (8 µM); 0.748 in test [2] (0.0005 µM). In addition, the relative viability in test [2] (0.001581 µM) was found to be 0.733; in test [2] (0.005 µM), 0.864; in test [2] (0.01581 µM), 0.592.
On to SW 1573, for which the relative viability turned out to be 1.02 in test [1] (0.08 µM); 1.11 in test [1] (0.253 µM); 1.11 in test [1] (0.8 µM); 0.803 in test [1] (2.53 µM); 0.543 in test [1] (8 µM); 1.02 in test [2] (0.0005 µM). For the same cell line, the results for the relative viability in test [2] (0.001581 µM), in test [2] (0.005 µM) and in test [2] (0.01581 µM) were 1.15, 0.929 and 0.678, respectively.
